Among the data in PubChem BioAssay (NCI) are GI50 and TGI values, retold here.

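Step 1: Grow cells in 96-well plates. Step 2: Expose to compound for 48 hours at 5 concentrations. Step 3: Interpolate endpoints linearly; if unreached, use highest concentration. GI50: concentration for 50% inhibition of growth. TGI denotes the concentration required for complete inhibition of growth.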 Bounds are passed on as bounds.

Among the test systems are CCRF-CEM leukemia; SK-MEL-5 melanoma; HCC-2998 colon; OVCAR-8 ovarian; TK-10 renal; NCI-H522 lung; NCI-H226 lung; SW-620 colon; UACC-62 melanoma; SNB-75 CNS.
Common to all, as to assay: NCI anticancer screen, dose series, 48 h

With `COC(=O)c1c2c(c[n+]([O-])c1C)C(=O)C(NCc1ccccc1)=CC2=O`, the GI50 in the assay on CCRF-CEM leukemia is 512 nM; with SK-MEL-5 melanoma it was 175 nM; in the assay with HCC-2998 colon, 604 nM; with OVCAR-8 ovarian, 0.311 µM; with TK-10 renal, 3.17 µM; with NCI-H522 lung it was 310 nM. Further, the GI50 in the assay with NCI-H226 lung was 1230 nM; with SW-620 colon, 319 nM; in the assay with UACC-62 melanoma, 334 nM; in the assay on SNB-75 CNS, 1760 nM. Also, the TGI is above 25.8 µM in the assay with CCRF-CEM leukemia; 0.322 µM with SK-MEL-5 melanoma; 2 µM with HCC-2998 colon; 1.16 µM in the assay on OVCAR-8 ovarian; 7.07 µM in the assay with TK-10 renal; 1.57 µM in the assay with NCI-H522 lung. Moreover, the TGI was 2.84 µM in the assay on NCI-H226 lung, 1.29 µM in the assay with SW-620 colon, 1.06 µM with UACC-62 melanoma and 3.27 µM in the assay on SNB-75 CNS.
In the case of `C=CCOC1=C2CC[C@H](O)[C@@]2(C)CCC1=O`, the TGI in the assay with CCRF-CEM leukemia, with SK-MEL-5 melanoma, with HCC-2998 colon, with OVCAR-8 ovarian, in the assay with TK-10 renal and with NCI-H522 lung was above 100 µM each time. The TGI in the assay with NCI-H226 lung, with SW-620 colon, with UACC-62 melanoma and in the assay on SNB-75 CNS was above 100 µM in each case.
On to `COc1cc2c3c(n(CCCN=[N+]=[N-])c(=O)c2cc1OC)-c1ccc(N)cc1C3=O`, for which the GI50 in the assay on CCRF-CEM leukemia is 27.7 nM; in the assay with SK-MEL-5 melanoma it was 78.4 nM; in the assay with HCC-2998 colon it was 258 nM; with OVCAR-8 ovarian it was 0.436 µM; with TK-10 renal, 0.71 µM; in the assay with NCI-H522 lung it was 133 nM. The GI50 with NCI-H226 lung is 249 nM; with SW-620 colon it was 203 nM; in the assay with UACC-62 melanoma, 82 nM; in the assay with SNB-75 CNS, 126 nM. For the same compound, the TGI is 1.1 µM with CCRF-CEM leukemia; 0.223 µM with SK-MEL-5 melanoma; 0.856 µM with HCC-2998 colon; 1.9 µM with OVCAR-8 ovarian; 3.93 µM in the assay on TK-10 renal; 0.983 µM in the assay with NCI-H522 lung. Further, the TGI with NCI-H226 lung stood at 1.16 µM; in the assay on SW-620 colon, 3.69 µM; in the assay on UACC-62 melanoma it was 0.451 µM; with SNB-75 CNS, 0.69 µM.
For the compound `COc1ccc(S(=O)(=O)Nc2cc(/C=C\c3cc(OC)c(OC)c(OC)c3)cc(OC)c2OC)cc1OC`, the GI50 in the assay on CCRF-CEM leukemia was 349 nM; in the assay on SK-MEL-5 melanoma it was 488 nM; with HCC-2998 colon, 1830 nM; with OVCAR-8 ovarian it was 4.08 µM; in the assay with TK-10 renal it was 10.3 µM; with NCI-H522 lung, 369 nM. Also, the GI50 in the assay on NCI-H226 lung is 1870 nM; in the assay on SW-620 colon, 478 nM; in the assay on UACC-62 melanoma, 494 nM; in the assay with SNB-75 CNS it was 404 nM. Further, the TGI in the assay with CCRF-CEM leukemia is above 100 µM; in the assay on SK-MEL-5 melanoma, 13.1 µM; with HCC-2998 colon, above 100 µM; in the assay with OVCAR-8 ovarian it was above 100 µM; with TK-10 renal, above 100 µM; in the assay on NCI-H522 lung, above 100 µM. The TGI in the assay on NCI-H226 lung, in the assay on SW-620 colon, with UACC-62 melanoma and in the assay on SNB-75 CNS was above 100 µM in each case.
Turning to `Cn1c(=O)c(Sc2ccccc2F)cc2cnc(NC3CCOCC3)nc21`, the GI50 is above 25000 nM in the assay with CCRF-CEM leukemia; above 25000 nM in the assay with SK-MEL-5 melanoma; above 25000 nM in the assay with HCC-2998 colon; above 25 µM in the assay with OVCAR-8 ovarian; above 25 µM in the assay with TK-10 renal; above 25000 nM in the assay on NCI-H522 lung. Also, the GI50 in the assay with NCI-H226 lung, in the assay with SW-620 colon, in the assay on UACC-62 melanoma and with SNB-75 CNS was above 25000 nM each time. Further, the TGI in the assay on CCRF-CEM leukemia, in the assay on SK-MEL-5 melanoma, with HCC-2998 colon, with OVCAR-8 ovarian, with TK-10 renal and in the assay with NCI-H522 lung was above 25 µM throughout. Also, the TGI in the assay with NCI-H226 lung, with SW-620 colon, in the assay on UACC-62 melanoma and with SNB-75 CNS was above 25 µM each time.
As to `COc1c(Nc2ncc(Cl)c(N[C@@H]3[C@H]4C=CC(C4)[C@@H]3C(N)=O)n2)ccc2c1CC[C@@H](N1CCOCC1)CC2`, the GI50 in the assay with CCRF-CEM leukemia was 5250 nM; in the assay with SK-MEL-5 melanoma it was 5810 nM; in the assay with HCC-2998 colon, 9610 nM; in the assay on OVCAR-8 ovarian, 6.59 µM; with TK-10 renal, 1.7 µM; in the assay with NCI-H522 lung, 5470 nM. Moreover, the GI50 in the assay with NCI-H226 lung is 3810 nM; in the assay with SW-620 colon, 2510 nM; with UACC-62 melanoma, 2810 nM; in the assay with SNB-75 CNS, 1590 nM. For the same compound, the TGI is 39.2 µM with CCRF-CEM leukemia; 19.2 µM with SK-MEL-5 melanoma; 23.6 µM in the assay on HCC-2998 colon; 29.6 µM with OVCAR-8 ovarian; 15.9 µM with TK-10 renal; 15 µM in the assay with NCI-H522 lung. Further, the TGI in the assay on NCI-H226 lung was found to be 30.2 µM; with SW-620 colon, 10.2 µM; in the assay with UACC-62 melanoma it was 18.8 µM; in the assay on SNB-75 CNS it was 5.89 µM.
Regarding `OCC1OC(n2ccc3cnccc32)CC1O` (stereo not given), the TGI with CCRF-CEM leukemia, with SK-MEL-5 melanoma, in the assay on HCC-2998 colon, with OVCAR-8 ovarian, with TK-10 renal and in the assay on NCI-H522 lung was above 100 µM throughout. For the same compound, the TGI with NCI-H226 lung, with SW-620 colon, with UACC-62 melanoma and with SNB-75 CNS was above 100 µM in each case.
For the compound `[Ce+3].[Cl-].[O-]/N=C(\c1ccccc1)c1ccccn1.[O-]/N=C(\c1ccccc1)c1ccccn1.[O-]/N=C(\c1ccccc1)c1ccccn1`, the GI50 with CCRF-CEM leukemia is 29300 nM; in the assay on SK-MEL-5 melanoma, 28800 nM; in the assay on HCC-2998 colon, 35300 nM; in the assay with OVCAR-8 ovarian, 37.9 µM; in the assay on TK-10 renal, 51.4 µM; with NCI-H522 lung, 21900 nM. Moreover, the GI50 in the assay on NCI-H226 lung was 21500 nM; in the assay on SW-620 colon it was 46100 nM; with UACC-62 melanoma, 39700 nM; in the assay on SNB-75 CNS, 15100 nM. For the same compound, the TGI is above 100 µM with CCRF-CEM leukemia; 85.8 µM with SK-MEL-5 melanoma; above 100 µM in the assay on HCC-2998 colon; above 100 µM with OVCAR-8 ovarian; above 100 µM in the assay on TK-10 renal; 73.6 µM in the assay on NCI-H522 lung. In addition, the TGI in the assay on NCI-H226 lung is 72 µM; in the assay on SW-620 colon, above 100 µM; with UACC-62 melanoma, above 100 µM; with SNB-75 CNS, 66 µM.
